For series [1], the system named is human breast cancer cell line (MDA-MB-468). Kind of series: Growth inhibition of MDA-MB-468 cells, sulforhodamine B method. The class given is cell-based. As to conditions: 120 h, 5 days with test compound. The protocol:
Growth inhibition of a human breast cancer cell line (MDA-MB-468) was determined by the sulforhodamine B method based on the method of Skehan P. et al. (J Natl Cancer Inst. 1990 Jul. 4; 82(13): 1107-12). In the study, MDA-MB-468 cells were seeded on DMEM medium containing 10% fetal bovine serum in a 96-well microplate. After 24-h incubation at 37° C. in the presence of 5% carbon dioxide, the test compound was added and the cells were incubated for another 5 days. After incubation, a trichloroacetic acid solution was added to yield the final concentration of 10% and the cells were left to stand at 4° C. for 1 hour to fix. Then, the cells were washed with water to remove the medium and trichloroacetic acid and dried in the air. The dried cells were stored at 4° C. until they were stained with sulforhodamine B. To each well, 1% acetic acid solution containing 0.4% sulforhodamine B was added and left to stand for 20 to 30 minutes at room temperature. After discarding the supernatant, each well was washed with 1% acetic acid solution, and 10 mM Tris([…]) solution was added while stirring to elute the dye taken into the cells. Then, the optical density was determined at the measurement wavelength of 492 nm and the reference wavelength of 690 nm, and the difference was calculated. The cell growth activity in each well was defined as the value determined by subtracting the OD in the control well not containing cells (the difference in absorbance between 492 nm and 690 nm) from that in the test well.
(§1) The 50% inhibitory concentration (IC50 (nM)) of the test compound was determined by comparing the cell growth activity in the well containing the test compound with that of the control not containing the test compound.

Series [2] has as its system human prostate (adenocarcinoma) cell line (VcaP). In words: Growth inhibition of VcaP cells, WST-8 assay. Type of series: cell-based. To be noted: 120 h, 5 days with test compound. The protocol:
(§2) The growth inhibition on a bicalutamide resistant human prostate cancer cell line established from LNCaP.FGC (LNCaP-Bic) (Hobisch A, et al. Prostate. 2006; 66(4):413-20.) was determined by a WST-8 assay according to the method of Singh A K, et al. (Cancer Lett. 1996 Oct. 1; 107(1): 109-15.). In this method, LNCaP-Bic cells were seeded in RPMI 1640 medium containing 10% fetal bovine serum in a 96-well microplate and incubated at 37° C. for 24 hours in the presence of 5% carbon dioxide. Then, the test compound was added and the cells were incubated for another 5 days. After incubation, a 15-μL volume of WST-8 (2-(2-methoxy-4-nitrophenyl)-3-(4-nitrophenyl)-5-(2,4-[…])-2H-tetrazolium, monosodium salt) was added. After the incubation for the time, the color reaction was stopped by adding 15 μL of 1% SDS (sodium dodecyl sulfate) solution and the optical density was determined at the measurement wavelength of 450 nm and the reference wavelength of 630 nm, and the difference was calculated. The cell growth activity in each well was defined as the value determined by subtracting the OD in the control well not containing cells (the difference in absorbance between 450 nm and 630 nm) from that in the test well.
as §1
The growth inhibition on a human prostate (adenocarcinoma) cell line (VcaP) (Korenchuk S, et al. In Vivo. 2001; 15(2):163-8.) was also determined by the above method.
In general terms: Tetrazolium assays rely on reduction of a dye to a coloured formazan, in cell work by metabolically active cells.

The subject of series [3] is bicalutamide resistant human prostate cancer cell line established from LNCaP.FGC (LNCaP-Bic). In words: Growth inhibition of LNCaP-Bic cells, WST-8 assay. Type of series: cell-based. As to conditions: 120 h, 5 days with test compound. The method, then: as §2, §1
For series [4], the system named is human prostate (carcinoma) cell line (DU 145). Kind of series: Growth inhibition of DU 145 cells, WST-8 assay. Type of series: cell-based. To be noted: 120 h, 5 days with test compound. The method, then:
as §2, §1
The growth inhibition on a human prostate (carcinoma) cell line (DU 145) (van Bokhoven A, et al. Prostate. 2003; 57(3):205-25.) was also determined by the above method.

Series [5] concerns human prostate (adenocarcinoma) cell line (PC-3). In words: Growth inhibition of PC-3 cells, WST-8 assay. Type of series: cell-based. As to conditions: 120 h, 5 days with test compound. The method, then:
as §2, §1
The growth inhibition on a human prostate (adenocarcinoma) cell line (PC-3) (van Bokhoven A, et al. Prostate. 2003; 57(3):205-25.) was also determined by the above method.

The test system of series [6] is human prostate (carcinoma) cell line (LNCaP.FGC). Kind of series: Growth inhibition of LNCaP.FGC cells, WST-8 assay. Type of series: cell-based. To be noted: 120 h, 5 days with test compound. The protocol:
as §2, §1
The growth inhibition on a human prostate (carcinoma) cell line (LNCaP.FGC) (van Bokhoven A, et al. Prostate. 2003; 57(3):205-25.) was also determined by the above method.

We go through 14 molecules from US8722663B2, “Di-substituted pyridine derivatives as anticancers” (Otsuka Pharmaceutical Co., Ltd., priority 2010, dated 2014).

Where a name gives a salt, the structure may show the parent alone.

As to `Cc1ccc(COc2ccc(Oc3c(C)cc(/C=C/C(=O)N4CCN(Cc5ccc(CCOc6ccc(N(C)C)cc6)cc5)CC4)cc3Cl)nc2)cc1` [Example 321, (E)-3-[3-chloro-5-methyl-4-({5-[(4-methylbenzyl)oxy]-pyridin-2-yl}oxy)phenyl]-1-[4-(4-{2-[4-(dimethylamino)phenoxy]ethyl}benzyl)piperazin-1-yl]prop-2-en-1-one], the half-inhibitory concentration (IC50) – broadly, the concentration at which inhibition is half-maximal – in series [1] was less than 10 nM.
Take `Br.C/C(C(=O)N1CCN(Cc2ccc(CCOc3ccc(C)cc3)cc2)CC1)=C(/C)c1cc(C)c(Oc2ccc(OCc3ccc(C)cc3)cn2)c(Cl)c1` [Example 706, (E)-3-[3-Chloro-5-methyl-4-({5-[(4-methylbenzyl)oxy]pyridin-2-yl}oxy)phenyl]-2-methyl-1-(4-{4-[2-(4-methylphenoxy)ethyl]benzyl}piperazin-1-yl)but-2-en-1-one hydrobromide]: the melting point (commonly the temperature of the solid-liquid transition) is 205.5 to 206.5 °C. For the same molecule, the IC50 in series [1] was less than 10 nM.
`Cc1ccc(COc2ccc(Oc3c(C)cc(/C=C/C(=O)N4CCN(Cc5ccc(CC(C)Oc6ccc(C)cc6)cc5)CC4)cc3Cl)nc2)cc1` (centres unmarked) [Example 534, (E)-3-[3-Chloro-5-methyl-4-({5-[(4-methylbenzyl)oxy]pyridin-2-yl}oxy)phenyl]-1-(4-{4-[2-(4-methylphenoxy)propyl]benzyl}piperazin-1-yl)prop-2-en-1-one hydrochloride] came in with a half-inhibitory concentration (IC50) in series [1] of less than 10 nM.
As to `Cc1ccc(COc2ccc(Oc3c(C)cc(/C=C/C(=O)N4CCN(Cc5ccc(C)cc5)CC4)cc3Cl)nc2)cc1` [Example 359, (E)-3-[3-Chloro-5-methyl-4-({5-[(4-methylbenzyl)oxy]pyridin-2-yl}oxy)phenyl]-1-[4-(4-methylbenzyl)piperazin-1-yl]prop-2-en-1-one], in series [1], the IC50 was less than 10 nM.
`Cc1cc(/C=C/C(=O)N2CCN(Cc3ccc(COc4ccc(C(C)C)cc4)cc3)CC2)cc(C)c1Oc1ccc(OCc2cscn2)cn1` [Example 648, (E)-3-(3,5-Dimethyl-4-{[5-(1,3-thiazol-4-ylmethoxy)pyridin-2-yl]oxy}phenyl)-1-[4-(4-{[4-(propan-2-yl)phenoxy]methyl}benzyl)piperazin-1-yl]prop-2-en-1-one hydrochloride] yielded an IC50 in series [1] of less than 10 nM.
On to `COc1ccc(COc2ccc(Oc3c(C)cc(/C=C/C(=O)N4CCN(Cc5ccc(CC(C)Oc6ccc(F)cc6)cc5)CC4)cc3C)nc2)cc1` (centres unmarked) [Example 725, (E)-1-(4-{4-[2-(4-Fluorophenoxy)propyl]benzyl}piperazin-1-yl)-3-[4-({5-[(4-methoxybenzyl)-oxy]pyridin-2-yl}oxy)-3,5-dimethylphenyl]prop-2-en-1-one hydrobromide], for which the half-maximal inhibitory concentration (IC50) in series [1] was less than 10 nM.
In series [1], `Cc1ccc(OCCc2ccc(CN3CCN(C(=O)/C=C/c4cc(C)c(Oc5ccc(OCc6cccc(F)c6F)cn5)c(Cl)c4)CC3)cc2)cc1` [Example 487, (E)-3-[3-Chloro-4-({5-[(2,3-difluorobenzyl)oxy]pyridin-2-yl}oxy)-5-methylphenyl]-1-(4-{4-[2-(4-methylphenoxy)ethyl]benzyl}piperazin-1-yl)prop-2-en-1-one hydrochloride] showed an IC50 of less than 10 nM.
As for `Cc1ccc(COc2ccc(Oc3c(C)cc(/C=C/C(=O)N4CCCN(Cc5ccc(CCOc6ccc(C(C)C)cc6)cc5)CC4)cc3Cl)nc2)cc1` [Example 123, (E)-3-[3-Chloro-5-methyl-4-({5-[(4-methylbenzyl)oxy]pyridin-2-yl}oxy)phenyl]-1-[4-(4-{2-[4-(propan-2-yl)phenoxy]ethyl}benzyl)-1,4-diazepan-1-yl]prop-2-en-1-one], the half-maximal inhibitory concentration (IC50) in series [1] is less than 10 nM.
The molecule `Cc1cc(/C=C/C(=O)N2CCN(Cc3ccc(CCOc4ccc(C(C)C)cc4)cc3)CC2)cc(C)c1Oc1ccc(OCc2cncs2)cn1.Cl` [Example 595, (E)-3-(3,5-Dimethyl-4-{[5-(1,3-thiazol-5-ylmethoxy)pyridin-2-yl]oxy}phenyl)-1-[4-(4-{2-[4-(propan-2-yl)phenoxy]ethyl}benzyl)piperazin-1-yl]prop-2-en-1-one hydrochloride] displayed a melting point of 199.2 to 200.9 °C. The concentration for half-maximal inhibition (IC50) in series [2] is less than 10 nM. In addition, in series [3], the IC50 was less than 10 nM. Also, the IC50 in series [4] is less than 10 nM. Further, in series [5], the IC50 was less than 10 nM. In series [6], the IC50 was less than 10 nM.
As to `Cc1ccc(OCCCc2ccc(CN3CCN(C(=O)/C=C/c4cc(C)c(Oc5ccc(OCc6ccc(C#N)cc6)cn5)c(Cl)c4)CC3)cc2)cc1.Cl` [Example 621, 4-{[(6-{2-Chloro-6-methyl-4-[(E)-3-(4-{4-[3-(4-methylphenoxy)propyl]benzyl}piperazin-1-yl)-3-oxoprop-1-en-1-yl]phenoxy}pyridin-3-yl)oxy]methyl}benzonitrile hydrochloride], the melting point lay within 193 to 194.8 °C. The molecule also returned an IC50 in series [2] of less than 10 nM. Moreover, the IC50 in series [3] was less than 10 nM. This molecule also showed an IC50 in series [4] of less than 10 nM. Moreover, the IC50 in series [5] was less than 10 nM. The same molecule yielded an IC50 in series [6] of less than 10 nM.
As to `CCOc1cccc(OCCc2ccc(CN3CCN(C(=O)/C=C/c4cc(C)c(Oc5ccc(OCc6cncs6)cn5)c(C)c4)CC3)cc2)c1.Cl` [Example 594, (E)-3-(3,5-Dimethyl-4-{[5-(1,3-thiazol-5-ylmethoxy)pyridin-2-yl]oxy}phenyl)-1-(4-{4-[2-(3-ethoxyphenoxy)ethyl]benzyl}piperazin-1-yl)prop-2-en-1-one hydrochloride], the melting point was in the range of 190.4 to 191.8 °C. The molecule also yielded a half-maximal inhibitory concentration (IC50) in series [2] of less than 10 nM. The molecule also came in with an IC50 in series [3] of less than 10 nM. For the same molecule, the IC50 in series [4] is less than 10 nM. Besides, the IC50 in series [5] is less than 10 nM. Also, in series [6], the 50% inhibitory concentration (IC50) is less than 10 nM.
In series [1], `Cc1cc(/C=C/C(=O)N2CCN(Cc3ccc(CCOc4ccc(C(F)(F)F)cc4)cc3F)CC2)cc(C)c1Oc1ccc(OCc2ccc(C#N)cc2)cn1` [Example 616, 4-({[6-(4-{(E)-3-[4-(2-Fluoro-4-{2-[4-(trifluoromethyl)phenoxy]ethyl}benzyl)piperazin-1-yl]-3-oxoprop-1-en-1-yl}-2,6-dimethylphenoxy)pyridin-3-yl]oxy}methyl)benzonitrile hydrochloride] gave a concentration for half-maximal inhibition (IC50) of less than 10 nM.
As for `Cc1ccc(COc2ccc(Oc3c(C)cc(/C=C/C(=O)N4CCN(Cc5ccc(CCOc6ccc(Cl)cc6)cc5)CC4)cc3Cl)nc2)cc1F.Cl` [Example 427, (E)-3-[3-Chloro-4-({5-[(3-fluoro-4-methylbenzyl)oxy]pyridin-2-yl}oxy)-5-methylphenyl]-1-(4-{4-[2-(4-chlorophenoxy)ethyl]benzyl}piperazin-1-yl)prop-2-en-1-one hydrochloride], the melting point was 224.7 to 224.8 °C. Besides, the IC50 in series [2] was less than 10 nM. In series [3], this molecule yielded an IC50 of less than 10 nM. The 50% inhibitory concentration (IC50) in series [4] is less than 10 nM. In addition, in series [5], the IC50 is less than 10 nM. In series [6], this molecule gave an IC50 of less than 10 nM.
Consider `Cc1cc(/C=C/C(=O)N2CCN(Cc3ccc(CCOc4ccc(C#N)cc4)cc3)CC2)cc(Cl)c1Oc1ccc(OCc2ccc(C(F)(F)F)cc2)cn1` [Example 289, 4-{2-[4-({4-[(E)-3-{3-chloro-5-methyl-4-[(5-{[4-(trifluoromethyl)benzyl]oxy}pyridin-2-yl)oxy]phenyl}prop-2-enoyl]piperazin-1-yl}methyl)phenyl]ethoxy}benzonitrile], for which, in series [1], the IC50 is less than 10 nM.
